Counter-ions that a name gives are not always drawn.
What was measured:
neurodegeneration = details: in vivo; cited from earlier work
[1] = tested on: polyglutamine protein aggregation; details: cited from earlier work
97Q-ADE2 [2] = test: colony-color assay of yeast cells expressing 97Q-ADE2 on adenine low medium; format: cell-based
[3] = tested on: cells that did not express 97Q-ADE2; test: colony-color control on glucose media, cells that did not express 97Q-ADE2, 48-well microplate; format: cell-based, yeast; details: 0, 1, 3 and 5 mM, FIG. 4 first row
Method: Plate preparation for colony-color assay was as following: 6.7 g of yeast nitrogen base lacking amino acids, 20 g of Bacto agar and 1.3 g of drop-out mix that contain amino acids supplement necessary for viable and selective growth of the transformed cells were added to 900 ml of H2O according to Burke et al. (Burke et al., Methods in Yeast Genetics, 2000 Edition, Gold Spring Harbor Laboratory Press, 171-175). Carbon source, either glucose or galactose, and filter-sterilized adenine were added after autoclaving to final concentrations of 2% and 4 mg/l, respectively. For preparation of media containing guanidine hydrochloride, the chemical reagent was added simultaneously with carbon source and adenine to final concentrations of […] as indicated. There were about 20 ml of medium in each 10 cm petri dish and 0.2 ml of medium in each well of 48-well microplate.
For the purpose of drug screening, small volume of medium for examining the colony color phenotype of cells has advantage in saving the amount of candidate compound tested. […] With glucose or galactose as carbon source, the transformed cells were grown on adenine low media containing guanidine hydrochloride at a final concentration of 0, 1, 3 and 5 mM as indicated. […]

97Q-ADE2 [4] = test: filter trap assay on cellulose acetate membrane for 97Q-ADE2 aggregates; format: cell-based, yeast
Method: Therefore, this unique physical characteristic of the aggregates could be detected biochemically using a filter trap assay in which only proteins with size more than 0.2 micrometers retain on a cellulose acetate membrane (Scherzinger et al., 1997, Cell 90, 549-558). In order to validate the colony-color phenotypes observed in the genetic experiments were caused by the formation of ADE2 protein aggregates, cell lysates were prepared and subjected to filter trap assays.
The experimental procedures for slot-blot assay were following: Nitrocellulose (NC) membrane was pre-wetted with TBS (20 mM Tris, 500 mM NaCl), then assembled into Bio-Dot apparatus (BIO-RAD) in which 3 filter papers (BIO-RAD) were on the bottom as a support and NC membrane was on the top. After assembly of the Bio-Dot apparatus, 200 μl TBS buffer was added into each loading well to rinse the membrane followed by the addition of diluted cell lysate (3 μl prepared cell lysate mixed with 197 μl TBS buffer). When the lysate has completely drained from the apparatus by gravity, 200 μl TBS buffer was loaded again to reduce residual proteins within the loading well. Following the step of TBS wash, 200 μl TTBS (20 mM Tris, 500 mM NaCl, and 0.05% Tween 20) was applied as washing buffer and the solution was sucked out by vacuum pump. The membrane was subjected to TTBS wash twice followed by removal of the membrane from the Bio-Dot apparatus and detection of trapped proteins by Western blotting. […] The signal for the immuno-blotting was detected by enhanced chemiluminescence (ECL) reagents. […]
In order to confirm the change of phenotype observed was caused by the alteration of protein solubility, the combination of filter trap and slot blot assays was applied for detecting the level of polyglutamine protein aggregates within these cells. […] Thus, the reduction of polyglutamine protein aggregation caused by Hsp104p inhibitor was tightly associated with the change of cellular phenotype and could be visibly detected by the colony color system.

25Q-ADE2 = test: colony-color assay of yeast cells expressing 25Q-ADE2 on adenine low medium; format: cell-based; details: guanidine hydrochloride 0, 1, 3 and 5 mM; 10-cm Petri dish; FIG. 3(A)
Hsp104p = target: T1, Hsp104p (Saccharomyces cerevisiae, UniProt P31539); details: 3-5 mM; cited from earlier work
T1 construct: cellular Hsp104p is required for two similar types of protein aggregation in yeast cells; host or cells: yeast cells (endogenous Hsp104p)
T1 sequence (P31539 whole entry): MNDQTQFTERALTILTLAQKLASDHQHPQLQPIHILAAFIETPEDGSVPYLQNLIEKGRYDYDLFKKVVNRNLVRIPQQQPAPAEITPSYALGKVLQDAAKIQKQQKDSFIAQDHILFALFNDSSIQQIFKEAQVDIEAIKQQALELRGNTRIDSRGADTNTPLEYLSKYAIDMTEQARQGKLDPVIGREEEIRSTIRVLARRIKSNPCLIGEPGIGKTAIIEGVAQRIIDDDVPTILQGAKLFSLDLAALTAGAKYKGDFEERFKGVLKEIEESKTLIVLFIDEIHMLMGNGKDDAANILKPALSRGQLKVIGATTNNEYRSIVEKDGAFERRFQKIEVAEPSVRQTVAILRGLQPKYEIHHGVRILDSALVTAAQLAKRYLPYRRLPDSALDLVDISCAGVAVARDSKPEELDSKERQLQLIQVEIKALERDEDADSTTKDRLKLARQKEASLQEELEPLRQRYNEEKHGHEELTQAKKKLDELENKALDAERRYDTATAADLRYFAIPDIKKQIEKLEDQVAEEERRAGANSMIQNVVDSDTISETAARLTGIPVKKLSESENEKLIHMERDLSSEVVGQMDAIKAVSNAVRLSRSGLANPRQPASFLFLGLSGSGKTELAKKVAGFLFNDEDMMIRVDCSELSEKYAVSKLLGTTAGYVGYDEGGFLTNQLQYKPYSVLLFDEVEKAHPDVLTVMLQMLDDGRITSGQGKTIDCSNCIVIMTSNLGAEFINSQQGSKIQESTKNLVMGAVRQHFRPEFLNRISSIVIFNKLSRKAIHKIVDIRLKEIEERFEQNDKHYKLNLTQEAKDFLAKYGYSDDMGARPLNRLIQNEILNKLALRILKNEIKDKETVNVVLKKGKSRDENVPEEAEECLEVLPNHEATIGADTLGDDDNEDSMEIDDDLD

For `C[C@@H](N)[C@H]1CC[C@H](C(=O)Nc2ccncc2)CC1` [Y-27632], the “neurodegeneration in an animal model” value (neurodegeneration) is given as “reduced neurodegeneration” and the polyglutamine protein aggregation [1] is given as “diminished polyglutamine protein aggregation”.

With `N=C(N)N` [guanidine hydrochloride] the “cellular color of 97Q-ADE2 expressing cells” value (97Q-ADE2 [2]; 0, 1, 3 and 5 mM, 48-well microplate, galactose, FIG. 4 second row) was “changed their cellular colors from red to white”, the “appearance of colony color, 97Q-ADE2 versus 25Q-ADE2 cells” value (97Q-ADE2 [2]; 5 mM, 10-cm Petri dish) was “indistinguishable between cells expressing 25Q-ADE2 and 97Q-ADE2” and the “cellular color phenotype of cells expressing 97Q-ADE2” value (97Q-ADE2 [2]; guanidine hydrochloride 0, 1, 3 and 5 mM, adenine low media, 10-cm Petri dish, FIG. 3(A)) was “changed from red to pink and white as a function of guanidine hydrochloride concentration”. For the same molecule, the “colony color of cells that did not express 97Q-ADE2” value [3] was “the cellular phenotype remained the same”, the “97Q-ADE2 fusion protein trapped on cellulose acetate membrane” value (from here on “97Q-ADE2 fusion protein trapped”) (97Q-ADE2 [4]; 1 mM, FIG. 3(B) lane 3) was “significant amount of the fusion protein was trapped” and the “97Q-ADE2 fusion protein trapped” value (97Q-ADE2 [4]; 3 mM, continuous treatment, FIG. 3(B) lane 4) was “little”. The “97Q-ADE2 fusion protein trapped” value (97Q-ADE2 [4]; 5 mM, continuous treatment, FIG. 3(B) lane 5) was “no signal”, the “colony color of cells expressing 25Q-ADE2” value (25Q-ADE2) was “constantly showed colony color of white” and the “activity of Hsp104p” value (Hsp104p) was “substantially reduces the activity of Hsp104p”.
